From PubChem BioAssay (NCI) come the findings set out here.

Test in all cases: NCI-60 cell line screen, 48 h
The test system of test [1] is A549 NSCLC.
Test [2] relates to HCT-15 colon.
For test [3], the system named is HOP-62 NSCLC.
Test [4] relates to MALME-3M melanoma.
The subject of test [5] is MCF7 breast.
Test [6] relates to OVCAR-8 ovarian.
The test system of test [7] is SK-OV-3 ovarian.
Test [8] relates to SNB-19 CNS.
Test [9] relates to SW-620 colon.
The test system of test [10] is UO-31 renal.

Where “and” joins values, the source holds several entries; their conditions need not be identical. Identical values can stand only once.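 Tested at 5 concentrations; 48 h exposure; 96-well plates; endpoints linearly interpolated, else capped at highest concentration. At the GI50, growth is halved. TGI: concentration producing complete growth inhibition.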 Where a SMILES comes first, the peptide text is derived from it. [ ]: non-standard residue; d: D form. Orn = NCCC[CH](N)C(=O)O

For `CC(C)CC1NC(=O)C(CCCN)NC(=O)C(C(C)C)NC(=O)C2CCCN2C(=O)C(Cc2ccccc2)NC(=O)C(CC(C)C)NC(=O)C(CCCN)NC(=O)C(C(C)C)NC(=O)C2CCCN2C(=O)C(Cc2ccccc2)NC1=O` (stereo not given) (cyclo(FPV[Orn]LFPV[Orn]L); configuration not given here), the GI50 in test [1] is 0.00914 µM and 0.0162 µM; in [2] it was 0.213 µM and 0.436 µM; in test [3], 0.00595 µM; in [4], 0.0108 µM and 0.0286 µM; in test [5], 0.0109 µM; in test [6], 0.0113 µM and 0.0252 µM. Besides, the GI50 in [7] is 0.0108 µM; in test [8], < 0.00325 µM; in [9] it was 0.0123 µM and 0.0239 µM; in test [10], 0.599 µM and 1.64 µM. Besides, the TGI in test [1] is 0.149 µM and 1.09 µM; in test [2], 4.06 µM and 4.7 µM; in [3], 0.418 µM and 1.31 µM; in [4], 0.12 µM and 0.0929 µM; in test [5], 0.373 µM and 0.102 µM; in test [6] it was 0.591 µM and 1.32 µM. Moreover, the TGI was 0.505 µM and 1.39 µM in [7]; 0.486 µM and 1.38 µM in test [8]; 0.422 µM and 1.17 µM in test [9]; 3.61 µM and 6.37 µM in test [10].

`N=C(N)c1ccc(-c2ccc(-c3ccco3)o2)cc1F`: the GI50 in test [1] was 3.04 µM; in test [2], 2.02 µM; in test [3], 2.96 µM; in test [4], 1.74 µM; in test [5], 1.83 µM; in [6] it was 2.31 µM. Further, the GI50 in [7] was 3.2 µM; in test [8] it was 2.48 µM; in test [9], 1.72 µM; in [10] it was 1.43 µM. Moreover, the TGI in [1] was 10.6 µM; in test [2] it was 4.81 µM; in test [3], 10.4 µM; in test [4], 3.38 µM; in test [5], 4.84 µM; in [6] it was 6.53 µM. Also, the TGI in test [7] turned out to be 11.5 µM; in [8], 13.4 µM; in [9] it was 3.7 µM; in [10] it was 3.14 µM.

As for `C[C@H]1[C@H](C)CC[C@]2(C(=O)O)CC[C@]3(C)C(=CC[C@@H]4[C@@]5(C)CC[C@H](OC(=O)/C=C\c6ccc(O)cc6)C(C)(C)[C@@H]5CC[C@]43C)[C@H]12`, the GI50 in [1] is 2.02 µM; in test [2], 3.08 µM; in [3] it was 2.26 µM; in test [4], 2.51 µM; in [5], 1.36 µM; in test [6], 2.6 µM. Further, the GI50 was 11.9 µM in test [7], 10.5 µM in test [8], 17.6 µM in test [9] and 13.6 µM in test [10]. The TGI is > 100 µM in test [1]; 12.7 µM in test [2]; 12.8 µM in test [3]; 13.2 µM in [4]; 3.63 µM in test [5]; 9.1 µM in test [6]. The TGI in [7] was 26.5 µM; in test [8], 31.1 µM; in test [9], 33.7 µM; in [10] it was > 100 µM.

For `CCC1=C[C@H]2CN(CCc3c([nH]c4ccccc34)[C@@](C(=O)OC)(c3cc4c(cc3OC)N(C)[C@H]3[C@@](O)(C(=O)OC)[C@H](OC(C)=O)[C@]5(CC)[C@@H]6C[C@@H]6CN6CC[C@]43[C@@H]65)C2)C1`, the GI50 was 0.0396 µM in test [1]; 0.0738 µM in test [2]; 0.0249 µM in [3]; 0.249 µM in test [4]; 0.0131 µM in [5]; 0.127 µM in [6]. The GI50 in [7] was 0.0358 µM; in test [8], 0.0825 µM; in test [9] it was 0.0428 µM; in [10], 0.175 µM. In addition, the TGI in [1] was 9.56 µM; in [2], 3.31 µM; in test [3] it was 4.43 µM; in [4] it was 5.82 µM; in test [5] it was 3.61 µM; in test [6] it was 5.8 µM. Moreover, the TGI stood at 12.2 µM in test [7], 23.4 µM in [8], 3.89 µM in test [9] and 5.02 µM in test [10].

With `CCOC(=O)c1c2c(n3cccc(F)c13)C(=O)c1ncccc1C2=O`, the GI50 in test [1] is 0.217 µM; in [2] it was 0.0247 µM; in [3], 0.0494 µM; in [4] it was 0.541 µM; in test [5] it was 0.0572 µM; in [6], 1.17 µM. Also, the GI50 in [7] is 0.223 µM; in [8], 0.0703 µM; in test [9], 0.151 µM; in [10], 0.0189 µM. For the same molecule, the TGI in test [1] was determined as 1.67 µM; in [2], 12.2 µM; in [3], 5.17 µM; in test [4], 6.77 µM; in test [5] it was 1.27 µM; in [6], 7.47 µM. In addition, the TGI was 16.3 µM in test [7], 4.49 µM in test [8], 11.3 µM in [9] and 1.42 µM in [10].

As for `O=C(Nc1cccc2ccccc12)c1cc2ccccc2cc1O`, the GI50 in test [1] was 2.52 µM; in test [2] it was 3.03 µM; in [3] it was 3.25 µM; in test [4] it was 0.562 µM; in test [5], 1.7 µM; in [6], 2.52 µM. The GI50 was 2.5 µM in test [7], 3.17 µM in test [8], 2.91 µM in [9] and 1.22 µM in test [10]. Further, the TGI in [1] came out at 8.31 µM; in test [2] it was 11.6 µM; in test [3] it was 18.1 µM; in [4], 3.9 µM; in [5] it was 7.71 µM; in [6], 8.25 µM. The TGI is 7.55 µM in [7], > 100 µM in test [8], 15 µM in [9] and 4.95 µM in test [10].
